Measured values published in patent US12486229B2, “Indole derivative and application thereof” (SHANGHAI MEDICILON INC., priority 2020, dated 2025).

Experiments:
S1P1 = target: T1, S1P1 (Homo sapiens, UniProt P21453); assay: S1P1 overexpression cell activity by β-arrestin assay (U2OS-EDG1); format: cell-based; settings: U2OS-EDG1 cells
T1 construct: host or cells: U2OS (human osteosarcoma) cell line, U2OS-EDG1
Method: The following experiments were conducted to detect the activity of the compound on S1P1 overexpression cells by β-arrestin assay. [table] [table] 3. Experimental Steps Day 1: Cell Seeding Plate and Compound Treatment • (1) Firstly, the compound was diluted by a 4-fold gradient into 10 concentration points from the concentration of 10 μM in the culture plate by using NL fluid transfer system, with 2 replicates at each concentration point. • (2) Cells were resuspended by using FreeStyle™ expression medium, and the cell density was adjusted to 7,500 cells per 40 μL suspension. The samples with test concentration were added into the well of the cell culture plate, and 40 μL cell suspension was added into the corresponding well. • (3) The above cell plates were incubated overnight in a CO2 incubator with 5% (volume fraction) at 37° C. Day 2: Detection and Data Analysis • (1) The buffer solution was prepared according to the preparation method in the instructions of LiveBLAser™-fluorescence resonance energy transfer B/G loading kit. • (2) 8 μL detection reagent was added to each well, which were shaken and mixed evenly for 1 minute, centrifugated at 1,000 rpm for 10 seconds, and incubated at 23° C. in dark for 2 hours. • 3) Detection was performed by multimode reader. • 4) The PrismDemo software was used to analyze the data and fit the curve. 4. Experimental Results

[1] = system: TNBS induced ulcerative colitis in rats; assay: TNBS induced ulcerative colitis in rats; format: in vivo, rat; settings: for Colon length / Colon weight / Colon weight/colon length / Ulcer area: day 8; for General anatomical view of colon, from excellent to poor: 7 days administration, SASP 360, Example 3 and Etrasimod 3, Ozanimod 10 mg/kg; for Drug efficacy intensity (colon weight): oral gavage for 7 consecutive days, doses as given in ranking
Method: Preparation of molding agent: 5 mL TNBS and 8.953 mL anhydrous ethanol and 26.741 sterilized water for injection. • TNBS comes from Dalian Meilun Biotechnology Co., Ltd. • Source of SPF male SD rats: Shanghai Slake Experimental Animal Co., Ltd. • Animal age at the beginning of the experiment: 8 to 10 weeks; • Animal weight at the beginning of the experiment: about 250 g; • Adaptation time: 5 to 7 days; • Animals were fasted (only water) for 24 hours. After inhalation anesthesia with isoflurane, all rats were perfused with 0.5 mL TNBS ethanol solution per rat (18 mg TNBS/rat) via rectum with latex hose, with the length of the hose entering the rectum of about 8 cm. After withdrawing the hose, the rats remained under isoflurane anesthesia, and kept in the inclined state of hip elevation for 15 minutes.
The rats after modeling were randomly divided into 5 groups: model group, positive control group using drug sulfasalazine (SASP, 360 mg/kg), test substance group using the compound of Example 3 (3 mg/kg), test substance group using Etrasimod (3 mg/kg), test substance group using Ozanimod (10 mg/kg).
At 3 hours after modeling, the animals in each group were administrated with medicine solution by oral gavage (Table 1), 5 mL/kg body weight (10 mL/kg in sulfasalazine group), once a day, for 7 consecutive days, and the feces of the animals and whether there is death were observed every day. On the 8th day, the animals were killed under CO2 overdose anesthesia followed by being dissected, the entire colon tissue was extracted, the contents of the colon were cleaned after longitudinal dissection along the mesenteric side, the colon was weighed and measured for its length, the area of the ulcer was measured, and the general situation was observed and photos were taken. Finally, the colon was fixed in 10% formalin, and H&E staining and histopathological analysis (inflammation, goblet cells, lesion depth, ulcer degree, crypt abscess) were performed.
Wherein, the compound of Example 3 of the invention, purity: 99.74%. • Etrasimod, prepared according to the literature method (the second isomer of Example 1.29 in WO2010/011316A1), purity: 98.47%. • Ozanimod, prepared according to the literature method (compound 86 in WO2011/060392A1), purity: 99.78%. • Sulfasalazine enteric-coated tablets, produced by Shanghai Fuda Pharmaceutical Co., Ltd., 0.25 g/tablet. Enteric coated tablets show yellow to brownish yellow after the coating is removed. • Solutol: Beijing Fengli Jingqiu Pharmaceutical Co., Ltd. • Solvent preparation: • DMSO, Solutol and 0.9% sodium chloride solution were mixed according to the volume ratio of 5:10:85 to prepare the solvent.
Preparation of compound of Example 3 and Etrasimod solution: 27 mg of test substances were taken respectively and dissolved in 45 mL of solvent to obtain corresponding test substance solution.
Ozanimod: 90 mg Ozanimod was dissolved in 45 mL solvent to obtain Ozanimod solution.
Preparation of SASP solution: six sulfasalazine enteric-coated tablets after grinding were added to 41.7 mL 0.5% CMC-Na, and then dissolved by ultrasonic to obtain SASP solution.
Due to the excipient factor of SASP drug preparation, the concentration should not be too high when suspended in 0.5% CMC-Na, otherwise the suspension was uneven and the mobility was poor, so the dose volume of SASP was doubled compared with the compound of Example 3 and Etrasimod.

[2] = system: DSS induced ulcerative colitis in mice; assay: DSS induced ulcerative colitis in mice; format: in vivo; parameters: key to Total stool scores: sum of shape (1-3) and bleeding (1-3) levels; normal = 1 each; settings: for Weight / Total stool scores: 20 mg/kg oral gavage once a day
Method: Molecular weight of DSS dextran sodium sulfate: 36,000 to 50,000, From MP Biomedical Company.
Preparation of molding agent: preparation of 3.5% DSS: 49 g DSS plus 1,400 mL high-temperature sterilized water.
Source of SPF male C57BL/6 mice: Beijing Weitong Lihua Experimental Animal Technology Co., Ltd. • Animal age at the beginning of the experiment: 6 to 8 weeks; • Animal weight at the beginning of the experiment: 22 to 25 g; • Adaptation time: 3 to 5 days;
The mice were divided into groups according to their weight, 10 mice in each group. The mice were administrated once a day by gavage (or blank) according to the following Table 4.
Animals were given 3.5% DSS solution for free drinking water modeling (the day of modeling was recorded as day 1), and the modeling agent was replaced once every two days for 7 consecutive days, and then (day 8) 3.5% DSS was replaced with ordinary drinking water for another 1 day.
• Preparation of solvent 1: 0.66 mL DMSO, 1.32 mL Solutol and 11.22 mL Saline were mixed to prepare 13.2 mL of solvent 1; • Preparation of solvent 2: 0.3 mL DMSO, 0.6 mL Solutol and 5.1 mL Saline were mixed to prepare 6 mL of solvent 2; • Preparation of solution of compound of Example 3: 39.6 mg of compound of Example 3 was dissolved in 13.2 mL of solvent 1 to obtain the solution of compound 1 of Example 3, the solution 1 of compound of Example 3 was diluted with solvent 1 to prepare the solution of compound of Example 3 with concentrations of 2 mg/mL, 1 mg/mL, and 0.6 mg/mL; • Etrasimod solution: 6 mg of Etrasimod was dissolve in 6 mL of solvent 2 to obtain Etrasimod solution; • Ozanimod solution: 12 mg of […] was dissolved in 6 mL solvent 2 to obtain Ozanimod solution; • Note: Prepare once every two days, and store in refrigerator at 4° C.
Wherein, the purity of compound of Example 3 was 99.74%, Ozanimod and Etrasimod were prepared by the method described in Example 8, and the purities were 99.78% and 98.47% respectively.
The mouse stool was observed on its shape, bleeding condition every two days, and scored. Scoring criteria for stool condition: shape: normal (level 1), soft stool (level 2), and loose stool (level 3); traits: normal (level 1), faint redness (level 2), and bloody stool visible to the unaided eye (level 3).
After the last administration (8 consecutive days), the animals were dissected on the next day (day 9), the colon was separated, the whole colon was photographed, and the colon length was measured. Then the colon was cut longitudinally along the mesenteric side to remove the contents, which was weighed and observed on the integrity of the colonic mucosa. The colon was then fixed in 10% formalin.

[3] = 10 mg/kg oral gavage once a day for 7 days
[4] = 360 mg/kg oral gavage once a day for 7 days

T1 sequence (P21453 whole entry): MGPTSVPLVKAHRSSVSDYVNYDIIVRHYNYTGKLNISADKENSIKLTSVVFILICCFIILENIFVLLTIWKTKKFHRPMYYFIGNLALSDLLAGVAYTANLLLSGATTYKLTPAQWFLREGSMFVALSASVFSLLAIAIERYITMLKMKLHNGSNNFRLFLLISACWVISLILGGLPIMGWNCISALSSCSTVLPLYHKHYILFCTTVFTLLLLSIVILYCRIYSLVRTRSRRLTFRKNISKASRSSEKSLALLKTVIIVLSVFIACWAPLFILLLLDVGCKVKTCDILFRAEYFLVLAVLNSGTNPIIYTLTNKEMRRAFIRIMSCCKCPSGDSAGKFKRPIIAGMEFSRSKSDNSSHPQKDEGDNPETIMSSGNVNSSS

Molecule Cc1cc(OCc2ccc(C3CCCC3)c(C(F)(F)F)c2)cc2ccn(CCC(=O)O)c12 [Compound of Example 1, 3-(5-((4-cyclopentyl-3-(trifluoromethyl)benzyl)oxy)-7-methyl-1H-indole-1-yl)propionic acid] has an IC50 (S1P1) of 0.51 nM.
CCc1cc(OCc2ccc(C3CCCC3)c(C(F)(F)F)c2)cc2ccn(CCC(=O)O)c12 [Compound of Example 2, 3-(5-((4-cyclopentyl-3-(trifluoromethyl)benzyl)oxy)-7-ethyl-1H-indole-1-yl)propionic acid] was tested, and the IC50 (S1P1) was 3.27 nM.
For Cc1cc(OCc2ccc(C3CCCC3)c(C(F)(F)F)c2)cc2ccn(CCCC(=O)O)c12 [Compound of Example 4, 4-(5-((4-cyclopentyl-3-(trifluoromethyl)benzyl)oxy)-7-methyl-1H-indole-1-yl)butyric acid], the IC50 (S1P1) was 1.73 nM.
O=C(O)CCCn1ccc2cc(OCc3ccc(C4CCCC4)c(C(F)(F)F)c3)cc(Cl)c21 [Compound of Example 5, 4-(7-chlorine-5-((4-cyclopentyl-3-(trifluoromethyl)benzyl)oxy)-1H-indole-1-yl)butyric acid] showed an IC50 (S1P1) of 0.251 nM.
O=C(O)Cn1ccc2cc(OCc3ccc(C4CCCC4)c(C(F)(F)F)c3)ccc21 [Compound of Example 6, 2-(5-((4-cyclopentyl-3-(trifluoromethyl)benzyl)oxy)-1H-indole-1-yl)acetic acid] gave an IC50 (S1P1) of 175 nM.
In the case of CC(C)Oc1ccc(-c2nc(-c3cccc4c3CC[C@@H]4NCCO)no2)cc1C#N [Ozanimod, reference compound], the Colon length [1, 3] is reported as 13.09 ± 0.5 cm, the Colon weight [1, 3] is reported as 3.30 ± 0.53 g and the Colon weight/colon length [1, 3] is reported as 0.25 g/cm. The Ulcer area [1, 3] was 498.04 ± 202.49 mm^2, the “General anatomical view of colon, from excellent to poor” value [1] was “group using compound of Example 3>group using sulfasalazine>group using Etrasimod>group using Ozanimod” and the Weight ([1]; Day 1, 10 mg/kg oral gavage once a day) was 247.1 ± 0.64 g. It also gave a Weight ([1]; Day 2, 10 mg/kg oral gavage once a day) of 225.6 ± 0.65 g, a Weight ([1]; Day 3, 10 mg/kg oral gavage once a day) of 225.1 ± 0.86 g and a Weight ([1]; Day 4, 10 mg/kg oral gavage once a day) of 225.9 ± 1.39 g. For the same molecule, the Weight ([1]; Day 5, 10 mg/kg oral gavage once a day) was 231.3 ± 1.63 g, the Weight ([1]; Day 6, 10 mg/kg oral gavage once a day) was 239 ± 1.72 g and the Weight ([1]; Day 7, 10 mg/kg oral gavage once a day) was 247.8 ± 1.74 g. The Weight ([1]; Day 8, 10 mg/kg oral gavage once a day) was 262.8 ± 1.22 g, the “Drug efficacy intensity (colon weight)” value [1] was “group using the compound of Example 3 (3 mg/kg)>group using Etrasimod (3 mg/kg)>group using sulfasalazine (360 mg/kg)>model group>group using Ozanimod (10 mg/kg)” and the “Colon length compared with model group” value ([2]; 20 mg/kg) was “longer than that of the model group”. For the same molecule, the Colon weight ([2]; 20 mg/kg oral gavage once a day for 8 days, day 9) was 0.157 ± 0.01 g, the “Effect on blood stool and loose stool compared with model group” value ([2]; 20 mg/kg, day 9) was “had not significant improvement” and the Weight ([2]; Day 1) was 21.2 ± 0.19 g. The Weight ([2]; Day 2) was 21.7 ± 0.25 g, the Weight ([2]; Day 3) was 21.7 ± 0.26 g and the Weight ([2]; Day 4) was 21.9 ± 0.33 g. For the same molecule, the Weight ([2]; Day 5) was 21.5 ± 0.27 g, the Weight ([2]; Day 6) was 20.6 ± 0.54^ g and the Total stool scores ([2]; Day 7) was 5.9 ± 0.11. The Weight ([2]; Day 7) was 18.9 ± 0.54 g, the Total stool scores ([2]; Day 8) was 6.0 ± 0 and the Weight ([2]; Day 8) was 18.0 ± 0.5 g. The Total stool scores ([2]; Day 9) was 5.1 ± 0, the Weight ([2]; Day 9) was 16.5 ± 0.49 g and the “Number of dead animals” value ([2]; by the end of the test period, 10 mice per group, doses as Table 4 (Ozanimod 20 mg/kg)) was 3.
For O=C(O)c1cc(/N=N/c2ccc(S(=O)(=O)Nc3ccccn3)cc2)ccc1O [SASP, Sulfasalazine], the Colon length [1, 4] was 13.89 ± 0.45 cm, the Colon weight [1, 4] was 3.35 ± 0.74 g and the Colon weight/colon length [1, 4] was 0.24 g/cm. The Ulcer area [1, 4] was 320.23 ± 167.1 mm^2, the “General anatomical view of colon, from excellent to poor” value [1] was “group using compound of Example 3>group using sulfasalazine>group using Etrasimod>group using Ozanimod” and the Weight ([1]; Day 1, 360 mg/kg oral gavage once a day) was 250.1 ± 0.48 g. The Weight ([1]; Day 2, 360 mg/kg oral gavage once a day) was 226.4 ± 0.34 g, the Weight ([1]; Day 3, 360 mg/kg oral gavage once a day) was 227.6 ± 1.13 g and the Weight ([1]; Day 4, 360 mg/kg oral gavage once a day) was 231.8 ± 1.59 g. The Weight ([1]; Day 5, 360 mg/kg oral gavage once a day) was 238.6 ± 1.83 g, the Weight ([1]; Day 6, 360 mg/kg oral gavage once a day) was 247.3 ± 1.91 g and the Weight ([1]; Day 7, 360 mg/kg oral gavage once a day) was 255 ± 2.01 g. For the same molecule, the Weight ([1]; Day 8, 360 mg/kg oral gavage once a day) was 267.9 ± 1.9 g, the “Weight course compared with model group” value ([1]; SASP 360 mg/kg, Example 3 and Etrasimod 3 mg/kg, oral once a day) was “a certain tendency to inhibit the weight loss” and the “Drug efficacy intensity (colon weight)” value [1] was “group using the compound of Example 3 (3 mg/kg)>group using Etrasimod (3 mg/kg)>group using sulfasalazine (360 mg/kg)>model group>group using Ozanimod (10 mg/kg)”.
